Experimental data published in patent publication US4232014A, “Aminoalkylindans and use as hypotensive agents” (Marion Laboratories, Inc., priority 1979, dated 1980).

How the values were obtained:
[1] = system: animals; test: Anti-hypertensive effect when administered to animals parenterally or orally; type: in vivo; details: in words
[2] = Acute toxicity determination in mice (ALD50, ip); type: in vivo, female Swiss-Webster mice; details: in vivo, mouse, ip, 24 hours after administration
Method: (§1) Biological Methods--Acute toxicity determinations were performed in female Swiss-Webster mice, 15-24 g. Compounds were administered in aqueous solutions or as suspensions in 1% tragacanth by the intraperitoneal route to groups of three or more mice.

[3] = system: Mice; test: Acute toxicity determination in mice (ALD50, ip); type: in vivo, female Swiss-Webster mice; details: in words, compared with the other compounds of the series
Method: as §1

[4] = system: Desoxycorticosterone Hypertensive Rats; test: Cardiovascular activity (blood pressure and heart rate) in desoxycorticosterone hypertensive rats; type: in vivo, male Charles River rats; details: 24 hr
Method: The indirect measurements of blood pressure and heart rate were determined in male Charles River rats made hypertensive (systolic blood pressure >159 mm Hg) by subcutaneously implanting a wax-formulated pellet containing 10 mg of desoxycorticosterone acetate. Systolic blood pressure was measured in the caudal arteries of prewarmed (40° C.), unanesthetized, restrained animals by a pneumatic pulse transducer placed distal to an automated tail pressure cuff and was recorded on a physiograph. Heart rate was determined from the amplified pulse waves recorded during the blood pressure measurements. Prior to the actual experiments, animals were accustomed to the measurement handling procedure several times during the preceding weeks.
Control systolic blood pressure and heart rates were determined in a group of usually six hypertensive rats on each day. A compound for evaluation was administered by intraperitoneal injection either in solution or as a suspension at 24 hr. intervals following injection. Mean values of the group for these parameters at a particular measurement period were calculated, and then the mean difference from control, along with its associated standard error, was calculated for each period. The statistical significance of the changes produced by a compound was tested by an analysis of variance and the Newman-Keuls a posteriori test when F was significant. A probability level of 0.05 or less was accepted as a significant change.
All compounds synthesized in this series, except V, were tested at a dosage level of 100 mg/kg. […] Another group of hypertensive rats was injected with 0.9% NaCl in a dose of 1 ml/kg. The latter group was included as a placebo group for the entire study.

[5] = system: Desoxycorticosterone Hypertensive Rats; test: as above; type: in vivo, male Charles River rats
[6] = 10 mg/kg ip, solution in distilled water, 1 hr
[7] = 10 mg/kg ip, solution in distilled water, 2 hr
[8] = 10 mg/kg ip, solution in distilled water, 4 hr
[9] = 10 mg/kg ip, solution in distilled water, 24 hr
[10] = 25 mg/kg ip, solution in distilled water, 4 hr
[11] = 100 mg/kg ip, suspension in 1% tragacanth
[12] = 100 mg/kg ip, suspension in 1% tragacanth, 1 hr
[13] = 100 mg/kg ip, suspension in 1% tragacanth, 2 hr
[14] = 100 mg/kg ip, suspension in 1% tragacanth, 4 hr
[15] = 50 mg/kg ip, suspension in 1% tragacanth, 1 hr
[16] = 50 mg/kg ip, suspension in 1% tragacanth, 2 hr
[17] = 50 mg/kg ip, suspension in 1% tragacanth, 4 hr
[18] = 50 mg/kg ip, suspension in 1% tragacanth, 24 hr

Cc1cc2c(cc1CCN)CCC2 [5-aminoethyl-6-methylindan]
hypotensive properties [1]: has hypotensive properties | anti-hypertensive effect ([1]; as base or acid addition salt, animals, parenterally or orally): exert an anti-hypertensive effect

Cc1cc2c(cc1CCN)CCC2.Cl [Compound V, 5-Aminoethyl-6-methylindan HCl]
LD50 at 24 h ([2]; solution in distilled water): 79 to 89 mg/kg | relative toxicity in the mouse [3]: relatively more toxic in the mouse | Mean change in heart rate from control ± SE ([4]; 25 mg/kg ip, solution in distilled water): -26 ± 14 beats per minute | Mean change in heart rate from control ± SE [5, 6]: +32 ± 17 beats per minute | Mean change in systolic blood pressure from control ± SE [5, 6]: -24 ± 8 mm Hg | Mean change in heart rate from control ± SE [5, 7]: +34 ± 14 beats per minute | Mean change in systolic blood pressure from control ± SE [5, 7]: -24 ± 4 mm Hg | Mean change in heart rate from control ± SE [5, 8]: +25 ± 11 beats per minute | Mean change in systolic blood pressure from control ± SE [5, 8]: -15 ± 5 mm Hg | Mean change in heart rate from control ± SE [5, 9]: -4 ± 11 beats per minute | Mean change in systolic blood pressure from control ± SE [5, 9]: -6 ± 4 mm Hg | Mean change in heart rate from control ± SE [5, 10]: +20 ± 21 beats per minute | Mean change in systolic blood pressure from control ± SE [5, 10]: -18 ± 4 mm Hg | Mean change in systolic blood pressure from control ± SE ([5]; 25 mg/kg ip, solution in distilled water, 24 hr): -11 ± 2 mm Hg

COc1cc2c(cc1CCNC(=O)c1ccccc1)CCC2 [I, 5-Benzoylaminoethyl-6-methoxyindan]
LD50 at 24 h ([2]; suspension in 1% tragacanth): > 1000 mg/kg | Mean change in heart rate from control ± SE [4, 11]: -67 ± 22 beats per minute | Mean change in systolic blood pressure from control ± SE [4, 11]: -13 ± 4 mm Hg | Mean change in heart rate from control ± SE [5, 12]: -20 ± 23 beats per minute | Mean change in systolic blood pressure from control ± SE [5, 12]: -18 ± 8 mm Hg | Mean change in heart rate from control ± SE [5, 13]: +9 ± 30 beats per minute | Mean change in systolic blood pressure from control ± SE [5, 13]: -24 ± 7 mm Hg | Mean change in heart rate from control ± SE [5, 14]: -14 ± 18 beats per minute | Mean change in systolic blood pressure from control ± SE [5, 14]: -12 ± 6 mm Hg

COc1cc2c(cc1CCNC(=O)c1cc(OC)c(OC)c(OC)c1)CCC2 [II, 5-(3,4,5-Trimethoxybenzoyl)aminoethyl-6-methoxyindan]
LD50 at 24 h ([2]; suspension in 1% tragacanth): > 1000 mg/kg | Mean change in heart rate from control ± SE [4, 11]: -4 ± 10 beats per minute | Mean change in systolic blood pressure from control ± SE [4, 11]: -16 ± 4 mm Hg | Mean change in heart rate from control ± SE [5, 12]: +23 ± 28 beats per minute | Mean change in systolic blood pressure from control ± SE [5, 12]: -27 ± 8 mm Hg | Mean change in heart rate from control ± SE [5, 13]: +10 ± 28 beats per minute | Mean change in systolic blood pressure from control ± SE [5, 13]: -35 ± 13 mm Hg | Mean change in heart rate from control ± SE [5, 14]: +47 ± 29 beats per minute | Mean change in systolic blood pressure from control ± SE [5, 14]: -12 ± 8 mm Hg

COc1cc2c(cc1CCNC(=O)Cc1ccccc1)CCC2 [III, 5-Phenylacetylaminoethyl-6-methoxyindan]
LD50 at 24 h ([2]; suspension in 1% tragacanth): 1000 to 1500 mg/kg | Mean change in heart rate from control ± SE [4, 11]: +61 ± 12 beats per minute | Mean change in systolic blood pressure from control ± SE [4, 11]: -13 ± 4 mm Hg | Mean change in heart rate from control ± SE [5, 12]: +13 ± 12 beats per minute | Mean change in systolic blood pressure from control ± SE [5, 12]: -32 ± 7 mm Hg | Mean change in heart rate from control ± SE [5, 13]: +54 ± 25 beats per minute | Mean change in systolic blood pressure from control ± SE [5, 13]: -24 ± 5 mm Hg | Mean change in heart rate from control ± SE [5, 14]: +19 ± 21 beats per minute | Mean change in systolic blood pressure from control ± SE [5, 14]: -21 ± 4 mm Hg

COc1cc2c(cc1CCNC(=O)Cc1ccc(OC)c(OC)c1)CCC2 [IV, 5-(3,4-Dimethoxyphenylacetyl)aminoethyl-6-methoxyindan]
LD50 at 24 h ([2]; suspension in 1% tragacanth): 500 to 1000 mg/kg | Mean change in heart rate from control ± SE [4, 11]: -27 ± 2 beats per minute | Mean change in systolic blood pressure from control ± SE [4, 11]: -19 ± 4 mm Hg | Mean change in heart rate from control ± SE [5, 12]: +23 ± 29 beats per minute | Mean change in systolic blood pressure from control ± SE [5, 12]: -10 ± 4 mm Hg | Mean change in heart rate from control ± SE [5, 13]: +57 ± 31 beats per minute | Mean change in systolic blood pressure from control ± SE [5, 13]: -10 ± 2 mm Hg | Mean change in heart rate from control ± SE [5, 14]: +14 ± 12 beats per minute | Mean change in systolic blood pressure from control ± SE [5, 14]: -19 ± 3 mm Hg

C[C@](N)(Cc1ccc(O)c(O)c1)C(=O)O [Methyldopa, reference compound]
Mean change in heart rate from control ± SE [5, 15]: +106 ± 26 beats per minute | Mean change in systolic blood pressure from control ± SE [5, 15]: -31 ± 4 mm Hg | Mean change in heart rate from control ± SE [5, 16]: +104 ± 28 beats per minute | Mean change in systolic blood pressure from control ± SE [5, 16]: -50 ±4 mm Hg | Mean change in heart rate from control ± SE [5, 17]: +31 ± 39 beats per minute | Mean change in systolic blood pressure from control ± SE [5, 17]: -48 ± 6 mm Hg | Mean change in heart rate from control ± SE [5, 18]: -19 ± 12 beats per minute | Mean change in systolic blood pressure from control ± SE [5, 18]: -16 ± 5 mm Hg | change in mean systolic blood pressure from control levels ([5]; in words, hypertensive rats, reference standards): significant depressions in mean systolic blood pressure from control levels

COc1ccc(CC(=O)NCCc2cc3c(cc2C)CCC3)cc1OC [VII, N-(3,4-Dimethoxyphenylacetyl)-5-aminoethyl-6-methylindan]
LD50 at 24 h ([2]; suspension in 1% tragacanth): > 1000 mg/kg | Mean change in heart rate from control ± SE [4, 11]: +22 ± 12 beats per minute | Mean change in systolic blood pressure from control ± SE [4, 11]: -3 ± 7 mm Hg | Mean change in heart rate from control ± SE [5, 12]: +43 ± 10 beats per minute | Mean change in systolic blood pressure from control ± SE [5, 12]: -2 ± 6 mm Hg | Mean change in heart rate from control ± SE [5, 13]: +47 ± 12 beats per minute | Mean change in systolic blood pressure from control ± SE [5, 13]: -4 ± 9 mm Hg | Mean change in heart rate from control ± SE [5, 14]: +37 ± 15 beats per minute | Mean change in systolic blood pressure from control ± SE [5, 14]: +2 ± 5 mm Hg

COc1ccc(CNCCc2cc3c(cc2C)CCC3)cc1OC.Cl [VIII, N-(3,4-Dimethoxybenzyl)-5-aminoethyl-6-methylindan hydrochloride]
LD50 at 24 h ([2]; suspension in 1% tragacanth): 140 to 178 mg/kg | Mean change in heart rate from control ± SE [4, 11]: -14 ± 10 beats per minute | Mean change in systolic blood pressure from control ± SE [4, 11]: -17 ± 2 mm Hg | Mean change in heart rate from control ± SE [5, 12]: -55 ± 17 beats per minute | Mean change in systolic blood pressure from control ± SE [5, 12]: -58 ± 4 mm Hg | Mean change in heart rate from control ± SE [5, 13]: 0 ± 14 beats per minute | Mean change in systolic blood pressure from control ± SE [5, 13]: -60 ± 7 mm Hg | Mean change in heart rate from control ± SE [5, 14]: +4 ± 8 beats per minute | Mean change in systolic blood pressure from control ± SE [5, 14]: -47 ± 2 mm Hg

Cc1cc2c(cc1CCNC(=O)Cc1ccccc1)CCC2 [VI]
LD50 at 24 h ([2]; suspension in 1% tragacanth): > 1000 mg/kg | Mean change in heart rate from control ± SE [4, 11]: +2 ± 17 beats per minute | Mean change in systolic blood pressure from control ± SE [4, 11]: -3 ± 10 mm Hg | Mean change in heart rate from control ± SE [5, 12]: +17 ± 17 beats per minute | Mean change in systolic blood pressure from control ± SE [5, 12]: -7 ± 7 mm Hg | Mean change in heart rate from control ± SE [5, 13]: +24 ± 11 beats per minute | Mean change in systolic blood pressure from control ± SE [5, 13]: -2 ± 6 mm Hg | Mean change in heart rate from control ± SE [5, 14]: +23 ± 13 beats per minute | Mean change in systolic blood pressure from control ± SE [5, 14]: -1 ± 7 mm Hg
